# Target: T1, GR (Homo sapiens, UniProt P04150)
# T1 construct: expressed in transfected cells; host or cells: CHO-K1
# T1 sequence (P04150 1-777): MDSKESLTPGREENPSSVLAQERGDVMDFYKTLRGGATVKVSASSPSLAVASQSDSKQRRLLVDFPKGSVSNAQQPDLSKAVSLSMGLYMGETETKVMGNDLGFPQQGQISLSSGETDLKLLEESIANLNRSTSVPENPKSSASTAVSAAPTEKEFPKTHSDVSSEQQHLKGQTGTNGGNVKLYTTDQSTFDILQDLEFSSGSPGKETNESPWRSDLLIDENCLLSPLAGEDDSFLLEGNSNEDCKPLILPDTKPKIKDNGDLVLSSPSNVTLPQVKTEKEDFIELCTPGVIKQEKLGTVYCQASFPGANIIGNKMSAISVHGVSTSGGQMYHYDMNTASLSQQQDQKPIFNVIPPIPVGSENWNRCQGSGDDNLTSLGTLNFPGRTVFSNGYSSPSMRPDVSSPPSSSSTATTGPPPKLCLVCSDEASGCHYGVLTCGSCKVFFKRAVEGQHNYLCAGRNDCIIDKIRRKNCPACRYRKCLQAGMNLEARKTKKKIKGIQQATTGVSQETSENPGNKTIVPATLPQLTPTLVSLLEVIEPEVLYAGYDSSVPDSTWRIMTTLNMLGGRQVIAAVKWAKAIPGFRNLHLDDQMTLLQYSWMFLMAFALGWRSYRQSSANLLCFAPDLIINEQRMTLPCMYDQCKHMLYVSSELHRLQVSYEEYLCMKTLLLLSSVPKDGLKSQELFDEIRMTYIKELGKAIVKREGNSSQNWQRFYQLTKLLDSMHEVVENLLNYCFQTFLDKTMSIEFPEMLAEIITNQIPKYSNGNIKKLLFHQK
# Assay: In Vitro GR Luciferase Reporter Assay (antagonist mode, CHO-K1-GR-MMTV-Luc reporter cells)
# Type: cell-based
# Conditions: antagonist assay with 10 nM Dexamethasone, 18-24 hours
# Method in brief: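 CHO-K1-GR-MMTV-Luc cells in phenol red-free DMEM with 10% CSS, stimulated with 10 nM dexamethasone (final) and treated with 8-point 1:5 compound dilutions for about 18-24 h at 37° C. Luciferase measured by OneGlo luminescence; IC50 derived for inhibition of GR activity.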
row,IC50,SMILES
1,≤ 100 nM,"O=C(c1ccccn1)[C@]12Cc3cnn(-c4ccc(F)cc4)c3C=C1CC[C@H](S(=O)(=O)Cc1ccccc1)C2 [Example 21, ((4aS,6S)-6-(benzylsulfonyl)-1-(4-fluorophenyl)-1,4,5,6,7,8-hexahydro-4aH-benzo[f]indazol-4a-yl)(pyridin-2-yl)methanone]"
2,≤ 100 nM,"Cc1ccnc(C(=O)[C@]23Cc4cnn(-c5ccc(F)cc5)c4C=C2CC[C@H](S(=O)(=O)c2ccc(F)c(F)c2)C3)c1 [Example 30, ((4aS,6S)-6-((3,4-difluorophenyl)sulfonyl)-1-(4-fluorophenyl)-1,4,5,6,7,8-hexahydro-4aH-benzo[f]indazol-4a-yl)(4-methylpyridin-2-yl)methanone]"
3,≤ 100 nM,"O=C(c1ccccn1)[C@]12Cc3cnn(-c4ccc(F)cc4)c3C=C1CC[C@@H](S(=O)(=O)c1ccc(C(F)(F)F)cc1)C2 [Example 11, ((4aS,6R)-1-(4-fluorophenyl)-6-((4-(trifluoromethyl)phenyl)sulfonyl)-1,4,5,6,7,8-hexahydro-4aH-benzo[f]indazol-4a-yl)(pyridin-2-yl)methanone]"

# Same assay, conditions: antagonist mode, 10 nM Dexamethasone
row,SMILES,IC50
1,"Cn1cnc(S(=O)(=O)N(CCF)[C@H]2CCC3=Cc4c(cnn4-c4ccc(F)cc4)C[C@]3(C(=O)c3cc(Cl)ccn3)C2)n1 [Example 393, N-((4aS,6S)-4a-(4-chloropicolinoyl)-1-(4-fluorophenyl)-4,4a,5,6,7,8-hexahydro-1H-benzo[f]indazol-6-yl)-N-(2-fluoroethyl)-1-methyl-1H-1,2,4-triazole-3-sulfonamide]",≤ 100 nM
2,"Cn1cc(S(=O)(=O)N(CCF)[C@H]2CCC3=Cc4c(cnn4-c4ccc(F)cc4)C[C@]3(C(=O)c3cc(C(F)(F)F)ccn3)C2)nn1 [Example 395, N-(2-fluoroethyl)-N-((4aS,6S)-1-(4-fluorophenyl)-4a-(4-(trifluoromethyl)picolinoyl)-4,4a,5,6,7,8-hexahydro-1H-benzo[f]indazol-6-yl)-1-methyl-1H-1,2,3-triazole-4-sulfonamide]",≤ 100 nM
3,"O=C(c1ccccn1)[C@]12Cc3cnn(-c4ccc(F)cc4)c3C=C1CC[C@](F)(S(=O)(=O)c1ccccc1)C2 [Example 125, ((4aS,6S)-6-fluoro-1-(4-fluorophenyl)-6-(phenylsulfonyl)-1,4,5,6,7,8-hexahydro-4aH-benzo[f]indazol-4a-yl)(pyridin-2-yl)methanone]",≤ 100 nM
4,"Cn1ccc(S(=O)(=O)N(C2CCCC2)[C@H]2CCC3=Cc4c(cnn4-c4ccc(F)cc4)C[C@]3(C(=O)c3cc(C(F)(F)F)ccn3)C2)n1 [Example 238, N-cyclopentyl-N-((4aS,6S)-1-(4-fluorophenyl)-4a-(4-(trifluoromethyl)picolinoyl)-4,4a,5,6,7,8-hexahydro-1H-benzo[f]indazol-6-yl)-1-methyl-1H-pyrazole-3-sulfonamide]",≤ 100 nM

# The remaining lines, values ahead:
row,IC50,SMILES
1,≤ 100 nM,"O=C(c1cc(Cl)ccn1)[C@]12Cc3cnn(-c4ccc(F)cc4)c3C=C1CC[C@H](N(CC1(O)CC1)S(=O)(=O)c1ccc(F)cc1)C2 [Example 276, N-((4aS,6S)-4a-(4-chloropicolinoyl)-1-(4-fluorophenyl)-4,4a,5,6,7,8-hexahydro-1H-benzo[f]indazol-6-yl)-4-fluoro-N-((1-hydroxycyclopropyl)methyl) benzenesulfonamide]"
2,≤ 100 nM,"O=C(c1nccs1)[C@]12Cc3cnn(-c4ccc(F)cc4)c3C=C1CC[C@H](N(C1CC1)S(=O)(=O)c1ccc(F)cc1)C2 [Example 159, N-cyclopropyl-4-fluoro-N-((4aS,6S)-1-(4-fluorophenyl)-4a-(thiazole-2-carbonyl)-4,4a,5,6,7,8-hexahydro-1H-benzo[f]indazol-6-yl)benzenesulfonamide]"
3,≤ 100 nM,"CN([C@H]1CCC2=Cc3c(cnn3-c3ccc(F)cc3)C[C@]2(C(=O)c2ccc(C3CC3)cn2)C1)S(=O)(=O)c1ccc(F)cc1 [Example 124, N-((4aS,6S)-4a-(5-cyclopropylpicolinoyl)-1-(4-fluorophenyl)-4,4a,5,6,7,8-hexahydro-1H-benzo[f]indazol-6-yl)-4-fluoro-N-methylbenzenesulfonamide]"

# Reference: US20210122730A1, “GLUCOCORTICOID RECEPTOR MODULATORS” (ORIC Pharmaceuticals, Inc., priority 2017, published 2021)
